ChEMBL document CHEMBL1201862, “PubChem BioAssay data set” (2004)
Calls of active or inactive are those of the source.

Legend:
[1] = biological target: Eukaryotic translation initiation factor 4H (Homo sapiens, UniProt Q15056); assay: human eIF4H binding inhibitors, primary screen, translation initiation inhibitor project, biochemical, uHTS, fluorescence polarization (AID 2012)
[2] = insulin promoter down-regulators in MIN6 cells, imaging, high-content screening, mouse beta cells (AID 1628); type: functional
[3] = cytotoxicity in MIN6 insulinoma cells, dose response, cytotoxicity control, cell-based, mouse insulinoma (AID 2122); type: functional;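 note: confirmatory high-throughput counterscreen run to flag cytotoxic compounds; mouse MIN-6 beta cells carrying an insulin promoter eGFP reporter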
[4] = biological target: Polyadenylate-binding protein 1 (Homo sapiens, UniProt P11940); assay: PABP poly(A) RNA binding inhibitors, primary screen, biochemical, fluorescence polarization, uHTS (AID 2014)
[5] = biological target: DNA dC->dU-editing enzyme APOBEC-3A (Homo sapiens, UniProt P31941); assay: Dose Response confirmation of small molecule APOBEC3A DNA Deaminase Inhibitors via a fluorescence-based single-stranded DNA deaminase assay. [Related pubchem assays (depositor defined):AID493011, AID493024]; type: functional
[6] = biological target: DNA dC->dU-editing enzyme APOBEC-3G (Homo sapiens, UniProt Q9HC16); type: functional;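 note: Dose-response counterscreen measuring inhibition of APOBEC3G DNA deaminase activity, run while confirming APOBEC3A inhibitors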
[7] = biological target: T1, Short transient receptor potential channel 4 (Mus musculus, UniProt Q9QUQ5); assay: mouse TRPC4 channel inhibitors, dose response, cell-based, HEK293 TRPC4/mu-opioid, Fluo-4 calcium (AID 434942); type: functional;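 note: potency of inhibitors blocking the TRPC4 calcium response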
T1 sequence (Q9QUQ5 whole entry): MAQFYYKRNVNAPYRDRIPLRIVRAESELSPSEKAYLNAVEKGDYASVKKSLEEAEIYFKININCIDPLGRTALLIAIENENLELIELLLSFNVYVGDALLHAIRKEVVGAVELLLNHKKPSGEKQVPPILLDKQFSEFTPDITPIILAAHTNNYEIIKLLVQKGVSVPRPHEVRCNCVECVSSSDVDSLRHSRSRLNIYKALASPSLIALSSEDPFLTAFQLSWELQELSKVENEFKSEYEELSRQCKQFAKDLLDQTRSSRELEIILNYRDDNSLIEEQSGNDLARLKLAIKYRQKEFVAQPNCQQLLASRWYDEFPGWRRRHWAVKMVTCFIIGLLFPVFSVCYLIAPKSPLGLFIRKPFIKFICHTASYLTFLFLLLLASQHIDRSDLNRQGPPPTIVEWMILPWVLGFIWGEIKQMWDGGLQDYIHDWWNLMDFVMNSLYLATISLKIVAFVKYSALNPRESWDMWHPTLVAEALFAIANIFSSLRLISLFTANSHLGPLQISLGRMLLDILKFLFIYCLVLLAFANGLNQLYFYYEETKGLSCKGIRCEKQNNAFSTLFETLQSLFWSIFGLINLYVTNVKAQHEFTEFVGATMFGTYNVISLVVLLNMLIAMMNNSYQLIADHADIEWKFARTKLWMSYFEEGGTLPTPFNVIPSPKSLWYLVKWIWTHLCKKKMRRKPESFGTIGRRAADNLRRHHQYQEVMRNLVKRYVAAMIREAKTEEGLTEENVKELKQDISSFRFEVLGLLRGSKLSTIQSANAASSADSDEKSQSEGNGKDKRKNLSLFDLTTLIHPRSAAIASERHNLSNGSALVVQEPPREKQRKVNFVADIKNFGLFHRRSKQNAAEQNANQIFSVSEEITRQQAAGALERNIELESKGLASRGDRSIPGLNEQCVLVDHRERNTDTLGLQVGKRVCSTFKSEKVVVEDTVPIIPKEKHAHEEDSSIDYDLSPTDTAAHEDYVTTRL

[8] = biological target: T2, Heat shock factor protein 1 (Mus musculus, UniProt P38532); assay: HSF1 potentiators in luciferase reporter cells, confirmation, cell-based, NIH3T3, luminescence, dose retest (AID 435004); type: functional;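 note: stress induced by proteasome inhibitor MG132 added 30 min after compound; luciferase reporter driven by HSF1 response element in NIH3T3 cells; actives raise luminescence as potentiators of the MG132 stress response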
T2 sequence (P38532 whole entry): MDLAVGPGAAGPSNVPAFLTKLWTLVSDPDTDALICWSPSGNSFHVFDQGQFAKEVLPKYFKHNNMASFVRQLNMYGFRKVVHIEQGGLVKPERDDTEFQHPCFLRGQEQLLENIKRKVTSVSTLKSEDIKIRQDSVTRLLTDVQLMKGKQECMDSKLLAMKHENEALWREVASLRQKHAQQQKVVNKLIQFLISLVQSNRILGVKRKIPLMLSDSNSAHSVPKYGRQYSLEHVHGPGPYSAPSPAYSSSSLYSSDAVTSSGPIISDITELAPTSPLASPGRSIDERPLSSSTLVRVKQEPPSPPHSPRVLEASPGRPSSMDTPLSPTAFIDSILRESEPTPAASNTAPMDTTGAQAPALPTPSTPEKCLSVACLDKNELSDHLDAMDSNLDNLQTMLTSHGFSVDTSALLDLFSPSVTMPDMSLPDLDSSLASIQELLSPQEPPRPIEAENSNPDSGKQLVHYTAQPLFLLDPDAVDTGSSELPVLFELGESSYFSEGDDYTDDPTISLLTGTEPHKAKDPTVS

[9] = biological target: T1, Short transient receptor potential channel 4; assay: SAR Analysis for the identification of selective inhibits of the transient receptor potential cation channel C4 (TRPC4): Automated Electrophysiology. [Related pubchem assays (depositor defined):AID2256]; type: functional
[10] = growth induction of Burl-1 ts yeast mutant, dose response, counter-screen for SUMOylation pathway inhibitor project, whole organism, S. cerevisiae, luminescence (AID 463199); type: functional
[11] = biological target: Lysine-specific demethylase 4A (Homo sapiens, UniProt O75164); assay: JMJD2A histone demethylase inhibitors, dose response, selectivity assay for GASC-1 inhibitor project, biochemical, DELFIA europium, cherry-picked samples (AID 488840)
[12] = biological target: Lysine-specific demethylase 4C (Homo sapiens, UniProt Q9H3R0); assay: GASC-1 (JMJD2C) histone demethylase inhibitors, dose response, biochemical, DELFIA europium, cherry-picked samples (AID 488835); type: functional
[13] = biological target: T3, Replicative DNA helicase DnaB (Mycobacterium tuberculosis, UniProt P9WMR3); assay: DnaB intein splicing inhibitors, dose response, biochemical, cell-free fluorescence (AID 449749); type: functional
T3 sequence (P9WMR3 whole entry): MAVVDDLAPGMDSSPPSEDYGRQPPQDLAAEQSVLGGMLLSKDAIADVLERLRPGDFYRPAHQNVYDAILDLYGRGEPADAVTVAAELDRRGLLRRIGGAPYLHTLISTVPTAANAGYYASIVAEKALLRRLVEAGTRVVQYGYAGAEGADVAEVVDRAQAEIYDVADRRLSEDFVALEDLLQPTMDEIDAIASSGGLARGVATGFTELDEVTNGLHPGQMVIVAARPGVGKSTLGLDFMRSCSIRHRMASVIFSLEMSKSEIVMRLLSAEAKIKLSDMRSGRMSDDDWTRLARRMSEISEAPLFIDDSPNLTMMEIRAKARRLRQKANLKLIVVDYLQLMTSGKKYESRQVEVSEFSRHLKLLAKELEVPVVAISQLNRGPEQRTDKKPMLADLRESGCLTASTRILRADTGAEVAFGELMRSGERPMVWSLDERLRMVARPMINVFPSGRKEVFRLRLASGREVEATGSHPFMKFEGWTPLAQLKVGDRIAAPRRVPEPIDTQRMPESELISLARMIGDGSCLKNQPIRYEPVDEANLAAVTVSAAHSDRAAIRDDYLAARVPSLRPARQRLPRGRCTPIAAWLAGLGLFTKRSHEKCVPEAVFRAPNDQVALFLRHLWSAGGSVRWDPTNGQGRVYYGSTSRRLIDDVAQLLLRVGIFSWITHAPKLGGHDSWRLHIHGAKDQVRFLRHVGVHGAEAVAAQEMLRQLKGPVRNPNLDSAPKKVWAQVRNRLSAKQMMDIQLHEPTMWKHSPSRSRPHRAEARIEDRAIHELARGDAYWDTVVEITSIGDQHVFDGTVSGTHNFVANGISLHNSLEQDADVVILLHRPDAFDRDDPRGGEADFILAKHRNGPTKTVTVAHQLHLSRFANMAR

[14] = biological target: T4, Protein RecA (Mycobacterium tuberculosis, UniProt P9WHJ3); assay: Fluorescence Cell-Free Homogeneous Dose Retest to Identify Inhibitors of RecA-Intein Splicing Activity. [Related pubchem assays (depositor defined):AID2097, AID2223, AID489010, AID492950]; type: functional
T4 sequence (P9WHJ3 whole entry): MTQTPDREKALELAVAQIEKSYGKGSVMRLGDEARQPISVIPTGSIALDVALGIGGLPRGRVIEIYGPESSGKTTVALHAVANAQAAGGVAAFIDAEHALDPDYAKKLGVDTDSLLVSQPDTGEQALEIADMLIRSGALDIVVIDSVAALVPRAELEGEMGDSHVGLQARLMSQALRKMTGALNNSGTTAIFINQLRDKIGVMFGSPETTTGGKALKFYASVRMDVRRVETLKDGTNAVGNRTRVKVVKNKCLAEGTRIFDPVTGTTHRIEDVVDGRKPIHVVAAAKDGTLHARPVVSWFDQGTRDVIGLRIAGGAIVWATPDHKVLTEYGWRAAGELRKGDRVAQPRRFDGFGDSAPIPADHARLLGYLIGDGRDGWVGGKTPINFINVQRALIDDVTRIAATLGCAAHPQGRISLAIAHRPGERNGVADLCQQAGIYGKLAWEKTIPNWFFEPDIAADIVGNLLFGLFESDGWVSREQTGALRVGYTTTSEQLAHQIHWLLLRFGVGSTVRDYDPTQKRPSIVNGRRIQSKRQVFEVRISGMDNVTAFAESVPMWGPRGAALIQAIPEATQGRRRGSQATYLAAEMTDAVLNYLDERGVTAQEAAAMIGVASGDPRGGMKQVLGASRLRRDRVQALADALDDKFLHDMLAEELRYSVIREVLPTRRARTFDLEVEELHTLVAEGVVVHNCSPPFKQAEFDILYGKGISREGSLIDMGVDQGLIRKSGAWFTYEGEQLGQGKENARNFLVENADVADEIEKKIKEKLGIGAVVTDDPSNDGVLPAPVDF

[15] = biological target: Large T antigen (Simian virus 40, UniProt P03070); type: functional, Betapolyomavirus macacae;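 note: Confirmatory-stage PubChem screen for compounds that inhibit SV40 T antigen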
[16] = biological target: T5, Intestinal-type alkaline phosphatase (Mus musculus, UniProt P24822); assay: PubChem AID 488874; type: functional
[17] = biological target: T6, Intestinal-type alkaline phosphatase (Homo sapiens, UniProt P09923); assay: human IAP inhibitors, dose response, biochemical, luminescent, uHTS hits, set 2 (AID 488793); type: functional
[18] = biological target: T6, Intestinal-type alkaline phosphatase; assay: Dose Response confirmation of uHTS hits from a small molecule inhibitors of human intestinal alkaline phosphatase via a luminescent assay. [Related pubchem assays (depositor defined):AID2544, AID2574]; type: functional
[19] = biological target: T6, Intestinal-type alkaline phosphatase; assay: activation of human intestinal alkaline phosphatase – biochemical, dose response (AID 488873); type: functional
[20] = biological target: T5, Intestinal-type alkaline phosphatase; assay: PubChem AID 488785; type: functional
[21] = biological target: T7, Alkaline phosphatase, tissue-nonspecific isozyme (Homo sapiens, UniProt P05186); assay: TNAP enzyme inhibition by screening hits, dose response, selectivity assay for mouse IAP inhibitor project, biochemical, human TNAP, uHTS hits (AID 488906); type: functional
T7 sequence (P05186 whole entry): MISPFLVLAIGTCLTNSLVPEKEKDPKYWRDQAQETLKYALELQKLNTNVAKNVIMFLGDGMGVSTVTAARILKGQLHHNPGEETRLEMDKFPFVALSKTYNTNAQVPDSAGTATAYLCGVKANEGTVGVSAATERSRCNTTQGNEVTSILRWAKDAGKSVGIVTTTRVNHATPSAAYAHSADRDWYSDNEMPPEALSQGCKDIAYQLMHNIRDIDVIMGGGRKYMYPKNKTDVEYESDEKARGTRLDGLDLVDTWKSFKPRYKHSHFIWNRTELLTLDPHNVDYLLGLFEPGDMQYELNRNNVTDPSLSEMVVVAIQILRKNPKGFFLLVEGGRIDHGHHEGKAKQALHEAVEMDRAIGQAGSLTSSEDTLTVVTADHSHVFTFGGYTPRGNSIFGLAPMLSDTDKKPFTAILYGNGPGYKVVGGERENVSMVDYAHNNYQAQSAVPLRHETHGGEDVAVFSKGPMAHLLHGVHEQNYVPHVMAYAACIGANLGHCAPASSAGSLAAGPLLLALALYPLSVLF

[22] = biological target: T7, Alkaline phosphatase, tissue-nonspecific isozyme; assay: inhibition of tissue-nonspecific alkaline phosphatase – biochemical, dose response (AID 488882); type: functional
[23] = biological target: T8, Cytochrome P450 1A2 (Homo sapiens, UniProt P05177);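 note: PubChem cytochrome P450 panel assay, CYP1A2 panel member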
T8 sequence (P05177 whole entry): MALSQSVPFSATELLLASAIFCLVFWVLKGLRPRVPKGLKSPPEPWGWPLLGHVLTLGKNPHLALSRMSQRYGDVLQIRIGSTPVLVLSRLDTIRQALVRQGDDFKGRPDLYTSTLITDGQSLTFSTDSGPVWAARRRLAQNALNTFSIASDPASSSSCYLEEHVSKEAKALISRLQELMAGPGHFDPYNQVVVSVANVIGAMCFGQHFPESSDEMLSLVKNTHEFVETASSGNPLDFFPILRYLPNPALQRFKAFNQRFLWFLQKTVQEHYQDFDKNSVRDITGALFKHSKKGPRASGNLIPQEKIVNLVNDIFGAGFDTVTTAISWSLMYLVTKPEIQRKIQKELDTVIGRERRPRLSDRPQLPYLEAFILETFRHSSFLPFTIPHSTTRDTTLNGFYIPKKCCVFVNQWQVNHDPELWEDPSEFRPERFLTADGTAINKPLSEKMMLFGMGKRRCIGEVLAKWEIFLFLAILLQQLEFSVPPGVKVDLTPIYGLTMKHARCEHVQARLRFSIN

T6 sequence (P09923 whole entry): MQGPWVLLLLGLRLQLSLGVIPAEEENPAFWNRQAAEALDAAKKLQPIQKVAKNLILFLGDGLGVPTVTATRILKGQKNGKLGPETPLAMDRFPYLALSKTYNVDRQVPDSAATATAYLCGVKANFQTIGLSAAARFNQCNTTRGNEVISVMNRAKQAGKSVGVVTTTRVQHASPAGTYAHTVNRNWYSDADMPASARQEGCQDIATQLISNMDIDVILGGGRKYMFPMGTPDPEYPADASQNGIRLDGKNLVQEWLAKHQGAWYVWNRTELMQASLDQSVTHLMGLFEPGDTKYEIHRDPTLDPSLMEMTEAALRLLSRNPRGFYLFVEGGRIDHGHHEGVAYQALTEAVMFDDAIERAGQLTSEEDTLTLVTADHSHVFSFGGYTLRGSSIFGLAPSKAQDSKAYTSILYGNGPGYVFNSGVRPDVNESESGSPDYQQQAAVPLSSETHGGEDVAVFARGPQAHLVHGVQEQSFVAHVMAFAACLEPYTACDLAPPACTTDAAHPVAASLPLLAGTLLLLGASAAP
T5 sequence (P24822 whole entry): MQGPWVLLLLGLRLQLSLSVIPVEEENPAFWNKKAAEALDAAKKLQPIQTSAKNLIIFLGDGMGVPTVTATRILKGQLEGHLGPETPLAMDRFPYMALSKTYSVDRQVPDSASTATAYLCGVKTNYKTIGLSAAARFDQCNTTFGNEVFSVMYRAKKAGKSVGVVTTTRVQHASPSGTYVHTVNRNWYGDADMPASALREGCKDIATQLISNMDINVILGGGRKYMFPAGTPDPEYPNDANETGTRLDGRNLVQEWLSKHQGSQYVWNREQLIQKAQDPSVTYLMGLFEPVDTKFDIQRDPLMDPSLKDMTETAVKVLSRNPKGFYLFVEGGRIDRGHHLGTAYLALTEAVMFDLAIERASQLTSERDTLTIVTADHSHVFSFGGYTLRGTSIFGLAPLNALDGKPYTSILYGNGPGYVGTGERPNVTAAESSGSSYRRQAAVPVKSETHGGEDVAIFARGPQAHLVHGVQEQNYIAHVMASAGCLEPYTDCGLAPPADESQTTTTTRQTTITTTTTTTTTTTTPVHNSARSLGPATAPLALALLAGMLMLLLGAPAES
Sequence of DNA dC->dU-editing enzyme APOBEC-3G (Q9HC16 whole entry): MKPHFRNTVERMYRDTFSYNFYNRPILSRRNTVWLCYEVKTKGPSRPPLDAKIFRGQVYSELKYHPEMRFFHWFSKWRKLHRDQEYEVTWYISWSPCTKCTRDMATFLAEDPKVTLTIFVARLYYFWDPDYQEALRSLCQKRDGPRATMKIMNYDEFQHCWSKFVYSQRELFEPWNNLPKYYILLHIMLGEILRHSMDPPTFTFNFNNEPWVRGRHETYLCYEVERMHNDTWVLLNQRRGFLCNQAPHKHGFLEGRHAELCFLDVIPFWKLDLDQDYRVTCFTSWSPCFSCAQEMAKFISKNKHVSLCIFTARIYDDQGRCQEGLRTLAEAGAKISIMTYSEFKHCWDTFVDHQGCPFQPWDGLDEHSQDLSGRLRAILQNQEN
Sequence of Lysine-specific demethylase 4C (Q9H3R0 whole entry): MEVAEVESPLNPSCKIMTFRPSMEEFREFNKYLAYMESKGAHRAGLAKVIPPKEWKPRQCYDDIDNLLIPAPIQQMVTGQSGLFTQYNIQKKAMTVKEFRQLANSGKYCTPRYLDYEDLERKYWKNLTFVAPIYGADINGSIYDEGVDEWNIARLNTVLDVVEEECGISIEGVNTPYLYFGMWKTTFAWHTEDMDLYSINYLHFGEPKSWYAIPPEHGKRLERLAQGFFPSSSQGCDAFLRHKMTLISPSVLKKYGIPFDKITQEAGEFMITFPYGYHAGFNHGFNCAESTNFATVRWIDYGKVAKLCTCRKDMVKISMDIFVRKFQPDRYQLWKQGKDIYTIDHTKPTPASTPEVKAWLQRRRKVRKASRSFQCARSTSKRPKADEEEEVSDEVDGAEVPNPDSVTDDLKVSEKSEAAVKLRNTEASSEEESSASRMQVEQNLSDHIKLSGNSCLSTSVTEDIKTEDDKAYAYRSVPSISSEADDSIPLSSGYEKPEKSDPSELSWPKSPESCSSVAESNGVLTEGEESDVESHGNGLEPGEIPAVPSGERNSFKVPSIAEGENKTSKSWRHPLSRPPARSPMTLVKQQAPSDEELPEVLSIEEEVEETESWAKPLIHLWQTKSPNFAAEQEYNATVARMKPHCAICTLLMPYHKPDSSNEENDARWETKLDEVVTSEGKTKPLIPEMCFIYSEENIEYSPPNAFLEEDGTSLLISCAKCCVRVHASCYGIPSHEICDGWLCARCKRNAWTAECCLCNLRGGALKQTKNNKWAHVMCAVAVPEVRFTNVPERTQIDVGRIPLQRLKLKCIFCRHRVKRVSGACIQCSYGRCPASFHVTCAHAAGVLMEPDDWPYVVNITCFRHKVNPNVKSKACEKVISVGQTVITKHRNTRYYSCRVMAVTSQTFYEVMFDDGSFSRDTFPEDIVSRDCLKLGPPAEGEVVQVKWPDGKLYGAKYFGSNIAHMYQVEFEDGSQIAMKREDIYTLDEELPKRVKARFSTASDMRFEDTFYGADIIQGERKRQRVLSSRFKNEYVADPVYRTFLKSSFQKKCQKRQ
Sequence of Lysine-specific demethylase 4A (O75164 whole entry): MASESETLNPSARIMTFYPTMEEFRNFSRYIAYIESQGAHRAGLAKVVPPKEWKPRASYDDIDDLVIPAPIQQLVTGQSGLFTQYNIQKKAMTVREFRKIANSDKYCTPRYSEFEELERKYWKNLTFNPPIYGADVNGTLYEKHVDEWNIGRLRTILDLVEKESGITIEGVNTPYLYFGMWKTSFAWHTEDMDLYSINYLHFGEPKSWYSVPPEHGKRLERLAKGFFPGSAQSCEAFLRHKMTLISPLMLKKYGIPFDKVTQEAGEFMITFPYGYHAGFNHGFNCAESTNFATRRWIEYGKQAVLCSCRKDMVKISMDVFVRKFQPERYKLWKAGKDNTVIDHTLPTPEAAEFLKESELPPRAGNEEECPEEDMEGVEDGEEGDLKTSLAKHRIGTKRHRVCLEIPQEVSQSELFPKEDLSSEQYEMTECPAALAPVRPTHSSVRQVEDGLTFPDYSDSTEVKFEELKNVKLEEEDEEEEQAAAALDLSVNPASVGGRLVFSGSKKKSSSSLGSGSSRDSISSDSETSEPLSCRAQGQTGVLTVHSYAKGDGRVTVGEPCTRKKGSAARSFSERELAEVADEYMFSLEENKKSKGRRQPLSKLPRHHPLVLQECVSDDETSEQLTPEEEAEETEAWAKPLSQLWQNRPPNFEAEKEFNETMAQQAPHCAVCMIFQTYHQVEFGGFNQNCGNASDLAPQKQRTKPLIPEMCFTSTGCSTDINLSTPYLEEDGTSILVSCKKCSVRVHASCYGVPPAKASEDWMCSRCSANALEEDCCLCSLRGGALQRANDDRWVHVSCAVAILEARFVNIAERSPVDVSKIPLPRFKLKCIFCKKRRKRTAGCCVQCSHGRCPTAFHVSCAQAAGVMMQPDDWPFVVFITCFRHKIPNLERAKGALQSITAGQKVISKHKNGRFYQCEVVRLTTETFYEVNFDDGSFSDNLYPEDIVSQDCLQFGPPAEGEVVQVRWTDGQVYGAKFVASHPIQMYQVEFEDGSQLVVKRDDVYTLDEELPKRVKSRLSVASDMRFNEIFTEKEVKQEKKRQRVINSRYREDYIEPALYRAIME
Sequence of Polyadenylate-binding protein 1 (P11940 whole entry): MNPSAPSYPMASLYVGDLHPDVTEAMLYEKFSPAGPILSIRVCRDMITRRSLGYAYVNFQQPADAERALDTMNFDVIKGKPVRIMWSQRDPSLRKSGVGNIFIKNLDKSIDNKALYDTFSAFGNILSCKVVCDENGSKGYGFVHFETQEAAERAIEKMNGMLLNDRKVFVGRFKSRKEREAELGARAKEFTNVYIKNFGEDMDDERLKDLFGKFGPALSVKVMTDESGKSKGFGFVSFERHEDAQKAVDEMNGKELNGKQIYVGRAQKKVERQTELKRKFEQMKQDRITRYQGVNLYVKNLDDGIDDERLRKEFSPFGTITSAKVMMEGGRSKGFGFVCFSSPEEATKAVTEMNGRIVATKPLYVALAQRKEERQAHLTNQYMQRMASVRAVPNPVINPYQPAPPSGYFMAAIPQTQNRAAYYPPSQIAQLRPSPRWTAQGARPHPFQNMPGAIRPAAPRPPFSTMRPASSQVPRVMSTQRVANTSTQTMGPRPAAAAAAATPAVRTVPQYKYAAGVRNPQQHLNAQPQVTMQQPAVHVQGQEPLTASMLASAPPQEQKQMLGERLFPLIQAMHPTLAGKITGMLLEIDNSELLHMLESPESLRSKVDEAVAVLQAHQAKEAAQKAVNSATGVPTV
Sequence of DNA dC->dU-editing enzyme APOBEC-3A (P31941 whole entry): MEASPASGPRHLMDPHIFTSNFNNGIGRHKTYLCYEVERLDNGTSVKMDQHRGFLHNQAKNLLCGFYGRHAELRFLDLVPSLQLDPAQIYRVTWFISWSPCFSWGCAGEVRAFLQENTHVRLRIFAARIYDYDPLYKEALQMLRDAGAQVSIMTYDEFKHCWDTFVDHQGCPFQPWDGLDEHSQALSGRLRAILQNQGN

CCCCCn1ccc(=N)cc1
IC50 [1]: > 100 µM (inactive) | IC50 [2]: 3.31 µM (active) | IC50 [3]: 2.58 µM (active) | IC50 [4]: 2.73 µM (active) | IC50 [5]: 1.3 µM (active) | IC50 [6]: 1.92 µM (active)

COc1ccc2c(C)cc(N3CCCCCC3)nc2c1
EC50 [7]: 0.531 µM (active) | EC50 [8]: > 260 µM (inactive) | IC50 [9]: 2.38 µM (active)

COc1ccc2[nH]cc(C(=O)C(=O)N3CCCCC3)c2c1
AC50 [10]: 93.6 µM (active)

O=c1[nH]cc(/N=C/c2cc(Cl)cc(Cl)c2O)c(=O)[nH]1
AC50 [11]: 18.1 µM (active) | AC50 [12]: 0.749 µM (active) | AC50 [13]: 4.92 µM (active) | EC50 [14]: 4.14 µM (active)

N#C/C(=C\c1ccc(O)c(O)c1)C(=O)c1ccc(O)c(O)c1
IC50 [15]: 0.82 µM (active) | IC50 [16]: 0.259 µM (active) | IC50 [17]: 2.68 µM (active) | IC50 [18]: 4.41 µM (active) | EC50 [19]: 6.36 µM (active) | IC50 [20]: 7.13 µM (active) | IC50 [21]: > 100 µM (inactive) | IC50 [22]: 9.49 µM (active) | AC50 [23]: 31.6 µM (inconclusive)
